Measured values from patent publication US7674819B2 (Warner-Lambert Company LLC, priority 2005, dated 2010).
Read-outs that look alike come from different tables or passages of the source.

Target: T1, hAR (Homo sapiens, UniProt P10275)
T1 sequence (P10275 1-920): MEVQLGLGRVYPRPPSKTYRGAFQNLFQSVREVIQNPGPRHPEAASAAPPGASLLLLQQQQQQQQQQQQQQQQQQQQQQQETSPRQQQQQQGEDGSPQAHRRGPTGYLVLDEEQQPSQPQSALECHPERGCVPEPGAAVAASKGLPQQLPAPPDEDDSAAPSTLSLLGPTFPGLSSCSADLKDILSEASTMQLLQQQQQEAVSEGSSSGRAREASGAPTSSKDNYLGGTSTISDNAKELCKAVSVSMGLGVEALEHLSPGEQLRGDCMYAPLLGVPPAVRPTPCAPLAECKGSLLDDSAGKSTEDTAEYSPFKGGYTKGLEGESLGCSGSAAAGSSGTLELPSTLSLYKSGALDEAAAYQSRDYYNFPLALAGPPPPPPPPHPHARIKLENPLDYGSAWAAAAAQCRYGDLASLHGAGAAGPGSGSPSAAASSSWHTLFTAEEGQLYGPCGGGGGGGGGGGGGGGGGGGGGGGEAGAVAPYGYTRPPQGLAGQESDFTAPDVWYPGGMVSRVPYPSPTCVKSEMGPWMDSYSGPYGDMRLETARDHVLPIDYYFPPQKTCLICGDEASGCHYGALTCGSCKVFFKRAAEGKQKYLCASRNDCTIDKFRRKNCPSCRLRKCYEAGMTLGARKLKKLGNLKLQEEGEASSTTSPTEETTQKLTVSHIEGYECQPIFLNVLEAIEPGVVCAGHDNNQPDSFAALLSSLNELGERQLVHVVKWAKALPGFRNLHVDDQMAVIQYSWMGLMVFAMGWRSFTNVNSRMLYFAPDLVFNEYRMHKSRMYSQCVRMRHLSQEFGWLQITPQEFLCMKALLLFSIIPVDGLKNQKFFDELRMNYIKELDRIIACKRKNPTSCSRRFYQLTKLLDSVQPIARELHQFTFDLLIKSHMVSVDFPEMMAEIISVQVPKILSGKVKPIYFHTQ
Assay: Competitive binding of 3H-DHT to baculovirus/Sf9 generated hAR extracts
Settings: one hour at 4° C., mean of multiple tests
Protocol: The description below describes how the assay was carried out.
Competitive binding analysis was performed on baculovirus/Sf9 generated hAR extracts in the presence or absence of different concentrations of test agent and a fixed concentration of ^3H-dihydrotestosterone (^3H-DHT) as tracer. This binding assay method is a modification of a protocol previously described (Liao S., et. al. J. Steroid Biochem. 20:11-17 1984). Briefly, progressively decreasing concentrations of compounds are incubated in the presence of hAR extract (Chang et al. P.N.A.S. Vol. 89, pp. […], 1992), hydroxylapatite, and 1 nM^3H-DHT for one hour at 4° C. Subsequently, the binding reactions are washed three times to completely remove excess unbound ^3H-DHT. hAR bound ^3H-DHT levels are determined in the presence of compounds (i.e. competitive binding) and compared to levels bound when no competitor is present (i.e. maximum binding). Compound binding affinity to the hAR is expressed as the concentration of compound at which one half of the maximum binding is inhibited.

[1] = concentration at which one half of maximum binding of 1 nM 3H-DHT to hAR is inhibited, read-out: IC50
[2] = IC50, concentration at which one half of maximum binding of 1 nM 3H-DHT to hAR is inhibited

SMILES | IC50 [1] | IC50 [2]
Cc1n[nH]c(C)c1S(=O)(=O)N1CC(C)(C)C(Oc2ccc(C#N)c(C(F)(F)F)c2)C1=O (stereo not shown) [Example 77, 4-[1-(3,5-Dimethyl-1H-pyrazole-4-sulfonyl)-4,4-dimethyl-2-oxo-pyrrolidin-3-yloxy]-2-trifluoromethyl-benzonitrile] | 0.246 µM | –
CC(C)S(=O)(=O)N1CC(C)(C)C(Oc2ccc(C#N)c(C(F)(F)F)c2)C1=O (stereo not shown) [Example 79, 4-[4,4-Dimethyl-2-oxo-1-(propane-2-sulfonyl)-pyrrolidin-3-yloxy]-2-trifluoromethyl-benzonitrile] | 0.305 µM | –
Cc1ccc(S(=O)(=O)N2CC(C)(C)C(Oc3ccc(C#N)c(C(F)(F)F)c3)C2=O)s1 (stereo not shown) [Example 85, 4-[4,4-Dimethyl-1-(5-methyl-thiophene-2-sulfonyl)-2-oxo-pyrrolidin-3-yloxy]-2-trifluoromethyl-benzonitrile] | 0.233 µM | –
Cc1nc(C)c(S(=O)(=O)N2CC(C)(C)C(Oc3ccc(C#N)c(C(F)(F)F)c3)C2=O)s1 (stereo not shown) [Example 89, 4-[1-(2,4-Dimethyl-thiazole-5-sulfonyl)-4,4-dimethyl-2-oxo-pyrrolidin-3-yloxy]-2-trifluoromethyl-benzonitrile] | 0.281 µM | –
CCCCS(=O)(=O)N1CC(C)(C)C(Oc2ccc(C#N)c(C(F)(F)F)c2)C1=O (stereo not shown) [Example 90, 4-[1-(Butane-1-sulfonyl)-4,4-dimethyl-2-oxo-pyrrolidin-3-yloxy]-2-trifluoromethyl-benzonitrile] | 0.309 µM | –
CC1(C)CN(S(=O)(=O)c2ccccc2C#N)C(=O)C1Oc1ccc(C#N)c(C(F)(F)F)c1 (stereo not shown) [Example 91, 4-[1-(2-Cyano-benzenesulfonyl)-4,4-dimethyl-2-oxo-pyrrolidin-3-yloxy]-2-trifluoromethyl-benzonitrile] | 0.508 µM | –
Cc1cc(S(=O)(=O)N2CC(C)(C)C(Oc3ccc(C#N)c(C(F)(F)F)c3)C2=O)c(C)s1 (stereo not shown) [Example 92, 4-[1-(2,5-Dimethyl-thiophene-3-sulfonyl)-4,4-dimethyl-2-oxo-pyrrolidin-3-yloxy]-2-trifluoromethyl-benzonitrile] | 0.334 µM | –
COC(=O)c1ccc(S(=O)(=O)N2CC(C)(C)C(Oc3ccc(C#N)c(C(F)(F)F)c3)C2=O)o1 (stereo not shown) [Example 100A, 5-[3-(4-Cyano-3-trifluoromethyl-phenoxy)-4,4-dimethyl-2-oxo-pyrrolidine-1-sulfonyl]-furan-2-carboxylic acid methyl ester] | 0.242 µM | –
COc1cc(OC2C(=O)N(S(C)(=O)=O)CC2(C)C)ccc1C#N (stereo not shown) [Example 100D, 4-(1-Methanesulfonyl-4,4-dimethyl-2-oxo-pyrrolidin-3-yloxy)-2-methoxy-benzonitrile] | 0.555 µM | –
CCC(CC)C(=O)N1CC(C)(C)C(Oc2ccc(C#N)c(C(F)(F)F)c2)C1=O (stereo not shown) [Example 100E, 4-[1-(2-Ethyl-butyryl)-4,4-dimethyl-2-oxo-pyrrolidin-3-yloxy]-2-trifluoromethyl-benzonitrile] | 0.372 µM | –
CC1(C)CN(C2CCC2)C(=O)C1Oc1ccc(C#N)c(C(F)(F)F)c1 (stereo not shown) [Example 100F, 4-(1-Cyclobutyl-4,4-dimethyl-2-oxo-pyrrolidin-3-yloxy)-2-trifluoromethyl-benzonitrile] | 0.243 µM | –
CCCC(=O)N1CC(C)(C)C(Oc2ccc(C#N)c(C(F)(F)F)c2)C1=O (stereo not shown) [Example 102, 4-(1-Butyryl-4,4-dimethyl-2-oxo-pyrrolidin-3-yloxy)-2-trifluoromethyl-benzonitrile] | 0.418 µM | –
Cc1noc(C)c1C(=O)N1CC(C)(C)C(Oc2ccc(C#N)c(C(F)(F)F)c2)C1=O (stereo not shown) [Example 106, 4-[1-(3,5-Dimethyl-isoxazole-4-carbonyl)-4,4-dimethyl-2-oxo-pyrrolidin-3-yloxy]-2-trifluoromethyl-benzonitrile] | 0.342 µM | –
CC1(C)CN(C(=O)c2cccs2)C(=O)C1Oc1ccc(C#N)c(C(F)(F)F)c1 (stereo not shown) [Example 108, 4-[4,4-Dimethyl-2-oxo-1-(thiophene-2-carbonyl)-pyrrolidin-3-yloxy]-2-trifluoromethyl-benzonitrile] | 0.37 µM | –
Cc1ccccc1-c1nnc(CN2CC(C)(C)C(Oc3ccc(C#N)c(C(F)(F)F)c3)C2=O)o1 (stereo not shown) [Example 111, 4-[4,4-Dimethyl-2-oxo-1-(5-o-tolyl-[1,3,4]oxadiazol-2-ylmethyl)-pyrrolidin-3-yloxy]-2-trifluoromethyl-benzonitrile] | 0.239 µM | –
CC1(C)CN(Cc2nnc(-c3cccc(Cl)c3)o2)C(=O)C1Oc1ccc(C#N)c(C(F)(F)F)c1 (stereo not shown) [Example 120, 4-{1-[5-(3-Chloro-phenyl)-[1,3,4]oxadiazol-2-ylmethyl]-4,4-dimethyl-2-oxo-pyrrolidin-3-yloxy}-2-trifluoromethyl-benzonitrile] | 0.347 µM | –
Cc1cccc(-c2nnc(CN3CC(C)(C)C(Oc4ccc(C#N)c(C(F)(F)F)c4)C3=O)o2)c1 (stereo not shown) [Example 122, 4-[4,4-Dimethyl-2-oxo-1-(5-m-tolyl-[1,3,4]oxadiazol-2-ylmethyl)-pyrrolidin-3-yloxy]-2-trifluoromethyl-benzonitrile] | 0.271 µM | –
CCOc1cccc(-c2nnc(CN3CC(C)(C)C(Oc4ccc(C#N)c(C(F)(F)F)c4)C3=O)o2)c1 (stereo not shown) [Example 124, 4-{1-[5-(3-Ethoxy-phenyl)-[1,3,4]oxadiazol-2-ylmethyl]-4,4-dimethyl-2-oxo-pyrrolidin-3-yloxy}-2-trifluoromethyl-benzonitrile] | 0.404 µM | –
CC1(C)CN(Cc2nnc(-c3ccc(Cl)cc3)o2)C(=O)C1Oc1ccc(C#N)c(C(F)(F)F)c1 (stereo not shown) [Example 125, 4-{1-[5-(4-Chloro-phenyl)-[1,3,4]oxadiazol-2-ylmethyl]-4,4-dimethyl-2-oxo-pyrrolidin-3-yloxy}-2-trifluoromethyl-benzonitrile] | 0.25 µM | –
CC(c1nnc(-c2ccccc2)o1)N1CC(C)(C)C(Oc2ccc(C#N)c(C(F)(F)F)c2)C1=O (stereo not shown) [Example 128, 4-[4,4-Dimethyl-2-oxo-1-[1-(5-phenyl-[1,3,4]oxadiazol-2-yl)-ethyl]-pyrrolidin-3-yloxy]-2-trifluoromethyl-benzonitrile] | – | 0.082 µM
Cc1ccc(-c2nnc(C(C)N3CC(C)(C)C(Oc4ccc(C#N)c(C(F)(F)F)c4)C3=O)o2)cc1 (stereo not shown) [Example 129, 4-[4,4-Dimethyl-2-oxo-1-[1-(5-p-tolyl-[1,3,4]oxadiazol-2-yl)-ethyl]-pyrrolidin-3-yloxy]-2-trifluoromethyl-benzonitrile] | – | 0.063 µM
CC(c1nnc(-c2ccc(O)cc2O)o1)N1CC(C)(C)C(Oc2ccc(C#N)c(C(F)(F)F)c2)C1=O (stereo not shown) [Example 132, 4-(1-{1-[5-(2,4-dihydroxy-phenyl)-[1,3,4]oxadiazol-2-yl]-ethyl}-4,4-dimethyl-2-oxo-pyrrolidin-3-yloxy)-2-trifluoromethyl-benzonitrile] | – | 0.052 µM
COc1ccccc1-c1nnc(C(C)N2CC(C)(C)C(Oc3ccc(C#N)c(C(F)(F)F)c3)C2=O)o1 (stereo not shown) [Example 133, 4-(1-{1-[5-(2-methoxy-phenyl)-[1,3,4]oxadiazol-2-yl]-ethyl}-4,4-dimethyl-2-oxo-pyrrolidin-3-yloxy)-2-trifluoromethyl-benzonitrile] | – | 0.06 µM
COc1cccc(-c2nnc(C(C)N3CC(C)(C)C(Oc4ccc(C#N)c(C(F)(F)F)c4)C3=O)o2)c1 (stereo not shown) [Example 134, 4-(1-{1-[5-(3-methoxy-phenyl)-[1,3,4]oxadiazol-2-yl]-ethyl}-4,4-dimethyl-2-oxo-pyrrolidin-3-yloxy)-2-trifluoromethyl-benzonitrile] | – | 0.076 µM
COc1ccc(-c2nnc(C(C)N3CC(C)(C)C(Oc4ccc(C#N)c(C(F)(F)F)c4)C3=O)o2)cc1 (stereo not shown) [Example 135, 4-(1-{1-[5-(4-methoxy-phenyl)-[1,3,4]oxadiazol-2-yl]-ethyl}-4,4-dimethyl-2-oxo-pyrrolidin-3-yloxy)-2-trifluoromethyl-benzonitrile] | – | 0.044 µM
